# Measurements reported in patent publication US20110082205A1, “Docosahexaenoic Acid Gel Caps” (priority 2009, published 2011).
# Marks after values point to notes of the source that are not given here.
# Assays:
# [1] = rat, in vivo
# Source text: The plasma DHA fatty acid area percent and plasma EPA fatty acid area percent were determine in the rats at day 1 and day 29 (post necropsy).
# male Wister rats [2] = assay: Effect on total cholesterol levels in rats; format: in vivo, Wistar rats; settings: for Serum Cholesterol % of control: actual means; for Serum Cholesterol LSMEAN: least squares mean; for Serum Cholesterol: mean ± SD
# Method: The effect of the DHA ethyl ester of Example 2 on cholesterol levels was investigated using male Wister rats, and was compared to DHASCO-T® and Lovaza®. The rats were administered either (a) a vehicle control, (b) DHA ethyl ester (0.6 g/kg/day, 1.3 g/kg/day, 2.5 g/kg/day, or 5.0 g/kg/day), (c) DHASCO-T (5.0 g/kg/day), or (d) Lovaza (5.0 g/kg/day) for 28 days. Cholesterol levels, i.e., total cholesterol, of the rats were measured at 14 days and 28 days. Total cholesterol values shown are averages for each treatment group, i.e., actual mean values.
# The cholesterol results presented below in Table 10 are calculated from the same data set as in Table 9. Cholesterol level values shown in Table 10 are averages for each treatment group, presented as least squares mean values.
# male Wister rats [3] = assay: Effect on triglyceride levels in high fructose diet rats; format: in vivo, Wistar rats; settings: for Triglycerides % of control: actual means; for Serum Triglycerides LSMEAN: least squares mean; for Triglycerides: oral gavage, mean ± SD
# Source text: The effect of the DHA ethyl ester (DHA-EE) produced according to the method of Example 2 on triglyceride levels was investigated using male Wister rats. The DHA-EE used in this example contained DHA at about 93.6% (wt/wt) of the total fatty acid content of the dosage form. The effect of purified DHA-EE was compared to two different DHA-containing products: DHASCO-T® (Martek Bioscience Corporation, Columbia, Md.) and Lovaza® (Reliant Pharmaceuticals, Inc., Durham, N.C.). DHASCO-T® comprises approximately 45% DHA and 55% other fatty acids (with substantially no EPA). Lovaza® comprises approximately 41.7% DHA ethyl ester, 51.7% EPA ethyl ester, and 6.4% other fatty acids. The vehicle control comprised corn oil. 84 Wistar rats were randomized into 7 groups of 12 rats each. Each rat was administered orally a high fructose diet for 4-5 weeks to raise triglyceride levels. After 4-5 weeks, rats with a triglyceride level <300 mg/dL were excluded. Then each rat was administered either (a) a vehicle control, (b) DHA ethyl ester (0.6 g/kg/day, 1.3 g/kg/day, 2.5 g/kg/day, or 5.0 g/kg/day), (c) DHASCO-T (5.0 g/kg/day), or (d) Lovaza (5.0 g/kg/day) for 28 days by oral gavage. Diets were controlled for calories, nutrients and levels of vitamin E. Triglyceride levels of the rats were measured at 14 days and 28 days. Triglyceride values shown are averages for each treatment group, presented as actual mean values.
# The triglyceride results presented below in Table 8 are calculated from the same data set as in Table 7. Triglyceride values shown in Table 8 are averages for each treatment group, presented as least squares mean values.
# [4] = day 14, 0.6 g/kg/day fatty acid
# [5] = day 14, 1.3 g/kg/day fatty acid
# [6] = day 14, 2.5 g/kg/day fatty acid
# [7] = day 14, 5.0 g/kg/day fatty acid
# [8] = day 28, 0.6 g/kg/day fatty acid
# [9] = day 28, 1.3 g/kg/day fatty acid
# [10] = day 28, 2.5 g/kg/day fatty acid
# [11] = day 28, 5.0 g/kg/day fatty acid
structure (smiles),measurement,setting,value
"CC/C=C\C/C=C\C/C=C\C/C=C\C/C=C\C/C=C\CCC(=O)OCC [DHA-EE, ethyl docosahexaenoate]",plasma DHA fatty acid area percent,[1],correlates with increasing dosing of DHA
same,plasma EPA fatty acid area percent,[1],does not increase in rats administered DHA-EE or DHASCO® to the same extent that it is increased in Lovaza®
same,cholesterol levels,"male Wister rats [2]; by 14 days, lowest dosage level",reduces cholesterol levels
same,Serum Cholesterol % of control (LSMEAN),male Wister rats [2]; [4],80%
same,Serum Cholesterol % of control,male Wister rats [2]; [4],79%
same,Serum Cholesterol LSMEAN,male Wister rats [2]; [4],72.4 mg/dL
same,Serum Cholesterol,male Wister rats [2]; [4],72.2 ± 17.7 mg/dL
same,Serum Cholesterol % of control (LSMEAN),male Wister rats [2]; [5],82%
same,Serum Cholesterol % of control,male Wister rats [2]; [5],82%
same,Serum Cholesterol LSMEAN,male Wister rats [2]; [5],74.6 mg/dL
same,Serum Cholesterol,male Wister rats [2]; [5],75.0 ± 24.0 mg/dL
same,Serum Cholesterol % of control (LSMEAN),male Wister rats [2]; [6],85%
same,Serum Cholesterol % of control,male Wister rats [2]; [6],85%
same,Serum Cholesterol LSMEAN,male Wister rats [2]; [6],77.4 mg/dL
same,Serum Cholesterol,male Wister rats [2]; [6],77.6 ± 23.1 mg/dL
same,Serum Cholesterol % of control (LSMEAN),male Wister rats [2]; [7],75%
same,Serum Cholesterol % of control,male Wister rats [2]; [7],74%
same,Serum Cholesterol LSMEAN,male Wister rats [2]; [7],67.8 mg/dL
same,Serum Cholesterol,male Wister rats [2]; [7],67.1 ± 17.9 mg/dL
same,Serum Cholesterol % of control (LSMEAN),male Wister rats [2]; [8],80%
same,Serum Cholesterol % of control,male Wister rats [2]; [8],80%
same,Serum Cholesterol LSMEAN,male Wister rats [2]; [8],80.6 mg/dL
same,Serum Cholesterol,male Wister rats [2]; [8],80.3 ± 21.8 mg/dL
same,Serum Cholesterol % of control (LSMEAN),male Wister rats [2]; [9],62%
same,Serum Cholesterol % of control,male Wister rats [2]; [9],62%
same,Serum Cholesterol LSMEAN,male Wister rats [2]; [9],61.6† mg/dL
same,Serum Cholesterol,male Wister rats [2]; [9],62.0 ± 16.0 mg/dL
same,Serum Cholesterol % of control (LSMEAN),male Wister rats [2]; [10],72%
same,Serum Cholesterol % of control,male Wister rats [2]; [10],72%
same,Serum Cholesterol LSMEAN,male Wister rats [2]; [10],71.3† mg/dL
same,Serum Cholesterol,male Wister rats [2]; [10],71.5 ± 17.8 mg/dL
same,Serum Cholesterol % of control (LSMEAN),male Wister rats [2]; [11],60%
same,Serum Cholesterol % of control,male Wister rats [2]; [11],60%
same,Serum Cholesterol LSMEAN,male Wister rats [2]; [11],60.9† mg/dL
same,Serum Cholesterol,male Wister rats [2]; [11],60.2 ± 19.3 mg/dL
same,triglyceride levels,"male Wister rats [3]; 14 days, lowest dosage level (0.6 g/kg/day)",reduces triglyceride levels
same,Serum Triglycerides % of control (LSMEAN),male Wister rats [3]; [4],65%
same,Triglycerides % of control,male Wister rats [3]; [4],67%
same,Serum Triglycerides LSMEAN,male Wister rats [3]; [4],168.4† mg/dL
same,Triglycerides,male Wister rats [3]; [4],176.5 ± 96.4 mg/dL
same,Serum Triglycerides % of control (LSMEAN),male Wister rats [3]; [5],67%
same,Triglycerides % of control,male Wister rats [3]; [5],66%
same,Serum Triglycerides LSMEAN,male Wister rats [3]; [5],173.6† mg/dL
same,Triglycerides,male Wister rats [3]; [5],175.2 ± 50.6 mg/dL
same,Serum Triglycerides % of control (LSMEAN),male Wister rats [3]; [6],47%
same,Triglycerides % of control,male Wister rats [3]; [6],44%
same,Serum Triglycerides LSMEAN,male Wister rats [3]; [6],120.2† mg/dL
same,Triglycerides,male Wister rats [3]; [6],115.5 ± 60.9 mg/dL
same,Serum Triglycerides % of control (LSMEAN),male Wister rats [3]; [7],43%
same,Triglycerides % of control,male Wister rats [3]; [7],37%
same,Serum Triglycerides LSMEAN,male Wister rats [3]; [7],110.7† mg/dL
same,Triglycerides,male Wister rats [3]; [7],97.6 ± 47.8 mg/dL
same,triglyceride levels vs control,"male Wister rats [3]; day 28, 0.6 g DHA-EE, DHASCO-T 5.0 g/kg/day",not significantly lower than control
same,Serum Triglycerides % of control (LSMEAN),male Wister rats [3]; [8],93%
same,Triglycerides % of control,male Wister rats [3]; [8],95%
same,Serum Triglycerides LSMEAN,male Wister rats [3]; [8],174.5 mg/dL
same,Triglycerides,male Wister rats [3]; [8],182.7 ± 86.9 mg/dL
same,Serum Triglycerides % of control (LSMEAN),male Wister rats [3]; [9],60%
same,Triglycerides % of control,male Wister rats [3]; [9],60%
same,Serum Triglycerides LSMEAN,male Wister rats [3]; [9],113.1† mg/dL
same,Triglycerides,male Wister rats [3]; [9],114.7 ± 37.2 mg/dL
same,Serum Triglycerides % of control (LSMEAN),male Wister rats [3]; [10],60%
same,Triglycerides % of control,male Wister rats [3]; [10],56%
same,Serum Triglycerides LSMEAN,male Wister rats [3]; [10],112.6† mg/dL
same,Triglycerides,male Wister rats [3]; [10],107.9 ± 58.4 mg/dL
same,Serum Triglycerides % of control (LSMEAN),male Wister rats [3]; [11],47%
same,Triglycerides % of control,male Wister rats [3]; [11],41%
same,Serum Triglycerides LSMEAN,male Wister rats [3]; [11],87.6† mg/dL
same,Triglycerides,male Wister rats [3]; [11],78.9 ± 46.5 mg/dL
